This is an account of results in US10981926B2 (Janssen Pharmaceutica NV, priority 2016, dated 2021).

What all share (assay type): cell-based
Assay [1] concerns the target T1, wild-type Androgen Receptor (AR-wt) (Homo sapiens (Human), UniProt P10275). As to the kind of experiment: LNCaP-AR-wt ANT reporter assay (antagonist mode). The following applies: for Emax: read-out: LNCaP-AR-wt ANT MAX % Inh; for IC50: pIC50 = −Log10(IC50 in Molar), read-out: LNCaP-AR-wt ANT pIC50 (converted). For orientation: In a reporter assay the amount or activity of a reporter protein is the signal.

Assay [2] concerns the target T1, wild-type Androgen Receptor (AR-wt). In words: LNCaP-AR-wt AG reporter assay (agonist mode). The following applies: for Emax: read-out: LNCaP-AR-wt AG MAX % Stim; for EC50: pEC50 = −Log10(EC50 in Molar), read-out: LNCaP-AR-wt AG pEC50 (converted).
Assay [3] addresses T2, F876L mutant Androgen Receptor (AR-F876L) (Homo sapiens (Human), UniProt P10275, F877L). In words: LNCaP-AR-F876L ANT reporter assay (antagonist mode). The following applies: for Emax: read-out: LNCaP-AR-F876L ANT MAX % Inh; for IC50: pIC50 = −Log10(IC50 in Molar), read-out: LNCaP-AR-F876L ANT pIC50 (converted).
For assay [4], the target named is T2, F876L mutant Androgen Receptor (AR-F876L). As to the kind of experiment: LNCaP-AR-F876L AG reporter assay (agonist mode). To be noted: for Emax: read-out: LNCaP-AR-F876L AG MAX % Stim; for EC50: pEC50 = −Log10(EC50 in Molar), read-out: LNCaP-AR-F876L AG pEC50 (converted).
The mark [5] stands for this setting: antagonist mode, maximum % inhibition of R1881 control response over tested concentration range.
Setting [6] is: agonist mode, maximum % stimulation over tested concentration range.
Setting [7] is: maximum % inhibition of R1881 control response over the tested concentration range.
Where [8] appears, read: maximum % stimulation (agonist response) over the tested concentration range.

T2 sequence (P10275 whole entry F877L): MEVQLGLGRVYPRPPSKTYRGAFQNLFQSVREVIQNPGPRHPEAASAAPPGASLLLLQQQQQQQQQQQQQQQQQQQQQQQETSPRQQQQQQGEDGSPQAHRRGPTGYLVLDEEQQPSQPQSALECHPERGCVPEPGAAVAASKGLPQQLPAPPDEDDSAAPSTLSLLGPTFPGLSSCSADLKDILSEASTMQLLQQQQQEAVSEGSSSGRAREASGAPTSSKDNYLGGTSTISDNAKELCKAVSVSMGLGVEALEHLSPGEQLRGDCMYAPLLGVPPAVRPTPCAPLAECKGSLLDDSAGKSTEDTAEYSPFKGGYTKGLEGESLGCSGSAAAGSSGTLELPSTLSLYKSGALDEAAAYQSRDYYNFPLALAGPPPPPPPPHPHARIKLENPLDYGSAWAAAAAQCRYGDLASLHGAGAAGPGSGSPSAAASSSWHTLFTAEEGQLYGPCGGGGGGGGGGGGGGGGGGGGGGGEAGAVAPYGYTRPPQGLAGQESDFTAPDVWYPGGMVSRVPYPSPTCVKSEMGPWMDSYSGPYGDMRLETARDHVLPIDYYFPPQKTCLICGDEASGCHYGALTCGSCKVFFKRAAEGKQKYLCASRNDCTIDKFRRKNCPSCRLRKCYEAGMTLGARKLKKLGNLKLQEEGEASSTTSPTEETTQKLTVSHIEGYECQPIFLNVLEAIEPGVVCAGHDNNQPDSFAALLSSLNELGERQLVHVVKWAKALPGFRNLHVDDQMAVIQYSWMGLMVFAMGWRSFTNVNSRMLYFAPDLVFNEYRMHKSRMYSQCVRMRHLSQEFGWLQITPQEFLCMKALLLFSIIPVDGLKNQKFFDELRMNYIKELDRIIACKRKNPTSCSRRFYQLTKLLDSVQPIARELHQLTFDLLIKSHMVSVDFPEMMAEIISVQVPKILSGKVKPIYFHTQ
T1 sequence (P10275 whole entry): as the sequence (P10275 whole entry F877L) above, with L877F counted along it

For the molecule `CN1CCC[C@@H](CNC(=O)c2ccc(N3C(=S)N(c4cnc(C#N)c(C(F)(F)F)c4)C(=O)C34CCC4)cc2F)C1` [Cpd 200, 4-[6-[6-cyano-5-(trifluoromethyl)-3-pyridyl]-5-oxo-7-thioxo-6,8-diazaspiro[3.4]octan-8-yl]-2-fluoro-N-[[(3S)-1-methyl-3-piperidyl]methyl]benzamide], the Emax came out at 99.6% in assay [1] (setting [5]), 0.4% in assay [2] (setting [6]), 99.1% in assay [3] (setting [5]) and 0.5% in assay [4] (setting [6]). In addition, the figures for the IC50 in assay [1] (antagonist mode) and in assay [3] (antagonist mode) were 708 nM and 794 nM, respectively. The EC50 in assay [2] (agonist mode) and in assay [4] (agonist mode) was more than 15.1 µM each time.

Take `COc1cc(N2C(=O)C3(CCC3)N(c3ccc4c(cnn4C4CCN(C(C)=O)CC4)c3)C2=S)cnc1C#N` [Cpd 212, 5-[8-[1-(1-acetyl-4-piperidyl)indazol-5-yl]-5-oxo-7-thioxo-6,8-diazaspiro[3.4]octan-6-yl]-3-methoxy-pyridine-2-carbonitrile]: the Emax in assay [1] (setting [5]) was determined as 102%; in assay [2] (setting [6]) it was 0.2%; in assay [3] (setting [5]), 96.1%; in assay [4] (setting [6]), 1.5%. In addition, the IC50 is 135 nM in assay [1] (antagonist mode) and 331 nM in assay [3] (antagonist mode). Further, the EC50 in assay [2] (agonist mode) and in assay [4] (agonist mode) was more than 15.1 µM throughout.

Turning to `N#Cc1ncc(N2C(=O)C3(CCC3)N(c3ccc4[nH]ncc4c3)C2=S)cc1Cl` [Cpd 155, 3-chloro-5-[8-(1H-indazol-5-yl)-5-oxo-7-thioxo-6,8-diazaspiro[3.4]octan-6-yl]pyridine-2-carbonitrile], the IC50 in assay [1] (antagonist mode) is 302 nM; in assay [3] (antagonist mode), 219 nM. The Emax in assay [1] (setting [7]) amounted to 97.4%; in assay [2] (setting [8]), 1.1%; in assay [3] (setting [7]) it was 98%; in assay [4] (setting [8]) it was 2.6%. The EC50 in assay [2] (agonist mode) and in assay [4] (agonist mode) was more than 15.1 µM throughout.

As to `N#Cc1ncc(N2C(=O)C3(CCC3)N(c3cnc(OC4CCN(CCO)CC4)nc3)C2=S)cc1C(F)(F)F` [Cpd 252, 5-[8-[2-[[1-(2-hydroxyethyl)-4-piperidyl]oxy]pyrimidin-5-yl]-5-oxo-7-thioxo-6,8-diazaspiro[3.4]octan-6-yl]-3-(trifluoromethyl)pyridine-2-carbonitrile], the Emax is 0% in assay [1] (setting [5]), -0.1% in assay [2] (setting [6]), 100% in assay [3] (setting [5]) and -0.1% in assay [4] (setting [6]). The IC50 was 407 nM in assay [1] (antagonist mode) and 832 nM in assay [3] (antagonist mode). Besides, the EC50 in assay [2] (agonist mode) and in assay [4] (agonist mode) was more than 15.1 µM each time.

On to `C[N@+]1([O-])CC[C@H](Oc2ccc(N3C(=S)N(c4cnc(C#N)c(C(F)(F)F)c4)C(=O)C34CCC4)cc2)CC1` [Cpd 190, 5-[8-[4-(1-methyl-1-oxido-piperidin-1-ium-4-yl)oxyphenyl]-5-oxo-7-thioxo-6,8-diazaspiro[3.4]octan-6-yl]-3-(trifluoromethyl)pyridine-2-carbonitrile], for which the Emax is 95.3% in assay [1] (setting [5]), -0.1% in assay [2] (setting [6]), 97.4% in assay [3] (setting [5]) and 0.1% in assay [4] (setting [6]). Further, the IC50 is 3020 nM in assay [1] (antagonist mode) and 1660 nM in assay [3] (antagonist mode). For the same molecule, the EC50 in assay [2] (agonist mode) and in assay [4] (agonist mode) was more than 15.1 µM in each case.

On to `Cc1cc(N2C(=O)C3(CCC3)N(c3cnc(OC4CCN(CCO)CC4)nc3)C2=S)cnc1C#N` [Cpd 254, 5-[8-[2-[[1-(2-hydroxyethyl)-4-piperidyl]oxy]pyrimidin-5-yl]-5-oxo-7-thioxo-6,8-diazaspiro[3,4]octan-6-yl]-3-methyl-pyridine-2-carbonitrile], for which the Emax was 0% in assay [1] (setting [5]), -0.1% in assay [2] (setting [6]), 99.3% in assay [3] (setting [5]) and 0.4% in assay [4] (setting [6]). The figures for the IC50 in assay [1] (antagonist mode) and in assay [3] (antagonist mode) were 891 nM and 708 nM, respectively. Besides, the EC50 in assay [2] (agonist mode) and in assay [4] (agonist mode) was more than 15.1 µM throughout.

In the case of `COc1cc(N2C(=O)C3(CCC3)N(c3ccc4c(cnn4C4CCNCC4)c3)C2=S)cnc1C#N` [Cpd 211, 3-methoxy-5-[5-oxo-8-[1-(4-piperidyl)indazol-5-yl]-7-thioxo-6,8-diazaspiro[3.4]octan-6-yl]pyridine-2-carbonitrile], the Emax in assay [1] (setting [5]) turned out to be 101%; in assay [2] (setting [6]) it was 0.5%; in assay [3] (setting [5]), 101%; in assay [4] (setting [6]) it was 0.1%. Moreover, the IC50 in assay [1] (antagonist mode) was 1050 nM; in assay [3] (antagonist mode) it was 363 nM. For the same molecule, the EC50 in assay [2] (agonist mode) and in assay [4] (agonist mode) was more than 15.1 µM in each case.

As to `CC(C)(C)OC(=O)N1CCc2cc(N3C(=S)N(c4cnc(C#N)c(C(F)(F)F)c4)C(=O)C34CCC4)ccc2C1` [Cpd 118, tert-butyl 6-[6-[6-cyano-5-(trifluoromethyl)-3-pyridyl]-5-oxo-7-thioxo-6,8-diazaspiro[3.4]octan-8-yl]-3,4-dihydro-1H-isoquinoline-2-carboxylate], the IC50 in assay [1] (antagonist mode) is 490 nM; in assay [3] (antagonist mode), 676 nM. For the same molecule, the Emax is 101% in assay [1] (setting [7]), 0.1% in assay [2] (setting [8]), 93.7% in assay [3] (setting [7]) and 0.8% in assay [4] (setting [8]). Besides, the EC50 in assay [2] (agonist mode) and in assay [4] (agonist mode) was more than 15.1 µM in each case.

`Cc1cc(N2C(=O)C3(CCC3)N(c3cnc(OC4CCNCC4)nc3)C2=S)cnc1C#N` [Cpd 246, 3-methyl-5-[5-oxo-8-[2-(4-piperidyloxy)pyrimidin-5-yl]-7-thioxo-6,8-diazaspiro[3.4]octan-6-yl]pyridine-2-carbonitrile]: the Emax is 0% in assay [1] (setting [5]), 0.1% in assay [2] (setting [6]), 99.5% in assay [3] (setting [5]) and 0.2% in assay [4] (setting [6]). For the same molecule, the figures for the IC50 in assay [1] (antagonist mode) and in assay [3] (antagonist mode) were 1120 nM and 1150 nM, respectively. Further, the EC50 in assay [2] (agonist mode) and in assay [4] (agonist mode) was more than 15.1 µM in each case.

Regarding `N#Cc1ncc(N2C(=O)C3(CCC3)N(c3ccc(OC4C5CCC4CNC5)nc3)C2=S)cc1C(F)(F)F` (stereo not shown) [Cpd 139, 5-[8-[6-(3-azabicyclo[3.2.1]octan-8-yloxy)-3-pyridyl]-5-oxo-7-thioxo-6,8-diazaspiro[3.4]octan-6-yl]-3-(trifluoromethyl)pyridine-2-carbonitrile], the IC50 in assay [1] (antagonist mode) is 589 nM; in assay [3] (antagonist mode) it was 513 nM. Moreover, the Emax in assay [1] (setting [7]) worked out at 102%; in assay [2] (setting [8]), 1.2%; in assay [3] (setting [7]), 99.8%; in assay [4] (setting [8]), 0.1%. Besides, the EC50 in assay [2] (agonist mode) and in assay [4] (agonist mode) was more than 15.1 µM in each case.

Consider `N#Cc1ncc(N2C(=O)C3(CCC3)N(c3ccc(OC4CC5CC4CN5)nc3)C2=S)cc1C(F)(F)F` [Cpd 165, (R,S)-5-[8-[6-(2-azabicyclo[2.2.1]heptan-5-yloxy)-3-pyridyl]-5-oxo-7-thioxo-6,8-diazaspiro[3.4]octan-6-yl]-3-(trifluoromethyl)pyridine-2-carbonitrile], for which the values for the IC50 in assay [1] (antagonist mode) and in assay [3] (antagonist mode) were 324 nM and 316 nM, respectively. Moreover, the Emax in assay [1] (setting [7]) is 101%; in assay [2] (setting [8]) it was 0.2%; in assay [3] (setting [7]), 100%; in assay [4] (setting [8]) it was 0%. Further, the EC50 in assay [2] (agonist mode) and in assay [4] (agonist mode) was more than 15.1 µM each time.
